SMILES strings stand for the structures. Several values for one entry are separate records, joined by “and”; a condition that tells them apart may be missing. Identical values can stand only once. Entries after “also recorded” stand apart in the source; their conditions may differ.

Data on four molecules can be found in US10918644B2, “Chemotherapeutic drug composition” (YEDITEPE UNIVERSITESI, priority 2017, dated 2021).

For series [1] the following is noted: cited from earlier work; for prolonged progression-free survival: treatment of metastatic RCC.
The test system of a further series is A-498 cells. The series is described as follows: WST-1 cell viability assay, A-498 cells. The class given is cell-based. Conditions: Everolimus monotherapy, 1, 5 or 10 μM, three days. As to the method: (§1) The WST-1 assay was performed to determine cell viability. The working principle of this assay is based on the conversion of the stable tetrazolium salt WST-1 into soluble formazan by viable cells. During conversion of WST-1 to formazan, a color change that is measurable at 450 and 630 nm wavelengths occurs in the cell medium. In other words, the amount of formazan dye is proportional to the number of metabolically active (viable) cells. The color change was evaluated by measuring the absorbance in the ELISA device and the obtained values were analyzed using the Graph Pad Prism 7 database.
(§2) To determine the toxic effect of Everolimus and ABT-737 on cell viability, primary A-498 and metastatic Caki-1 RCC cell lines that are resistant to drug Everolimus were used in this study and the toxic effect was determined by using the WST-1 method.
(§3) Everolimus and ABT-737 drugs were administered to A-498 and Caki-1 cells, which were seeded in 96-well culture plates, for three days to determine the appropriate dose for the combination. The effect of the drugs prepared at three different concentrations (1, 5, or 10 μM) on cell viability was determined using the WST-1 method. […] The amount of drug composition for Caki-1 (10,000 cells/well) metastatic cells was determined as 1 μM Everolimus and 10 μM ABT-737. […]
On the technique in general: Tetrazolium dyes change colour on reduction, which living cells bring about.

In series [2] the test system is Caki-1 cells. The series is described as follows: WST-1 cell viability assay, Caki-1 cells. Format: cell-based. As to the method: as §1, §2, §3
Another series concerns HEK293 cells. The series is described as follows: WST-1 cell viability assay on healthy kidney cells (toxicity). The class given is cell-based, human. How it is done:
as §1
Human embryonic kidney (HEK293) cells were used as a cell model to test whether Everolimus and ABT-737 had any toxic effects on healthy kidney cells. HEK293 cells were treated with the drug composition (1 μM for Everolimus and 5 μM for ABT-737) for 3 days and the toxicity response was determined by measuring cell viability by WST-1 assay for 3 days.

The next series concerns RenCa cells. The series is described as follows: WST-1 cell viability assay, RenCa cells. Format: cell-based, murine. To be noted: Everolimus 1, 5 and 10 μM, after 48 hours of treatment. How it is done:
as §1
(§4) The process of tumor development was monitored.

In series [3] the test system is Everolimus-resistant RenCa (erRenCa) cells. The series is described as follows: WST-1 cell viability assay, Everolimus-resistant RenCa cells. The class given is cell-based, murine. To be noted: Everolimus 1, 5 and 10 μM, at the end of three days. As to the method:
as §1
RenCa cells were made resistant to Everolimus for the use in in vivo experiments. In this regard, RenCa cells were seeded in 96-well culture plates. After 24 hours, the cells were treated with 1 μM Everolimus for 72 hours. At the end of 72 hours, the cells were washed with PBS (Phosphate-buffered saline) and treated with 10 μM Everolimus for an additional 72 hours. Cells that developed resistance to Everolimus were transferred to 6-well culture plates and were grown in an Everolimus-free medium. Cells reaching a density of 90% were transferred to T-75 culture plates and were grown for 2 months in a medium containing 1 μM Everolimus.
as §4

The test system of series [4] is mTOR pathway in A-498 cells. The series is described as follows: Western Blotting of mTOR pathway proteins, A-498 cells. Format: cell-based. To be noted: 1 μM Everolimus alone or with 5 μM ABT-737, 24 hours. How it is done: (§5) A-498 and Caki-1 RCC cells were used to investigate the molecular effect of the Everolimus and ABT-737 drug composition on the mTOR pathway. A-498 cells and Caki-1 cells seeded in 6-well plates were treated for 24 hours with 1 μM Everolimus and 5 μM ABT-737 and 1 μM Everolimus and 10 μM ABT-737, respectively. At the end of 24 hours, proteins were isolated from the cells. These proteins were then used to determine the expression of proteins that play a key role in the mTOR pathway by performing the Western Blotting technique.
On the technique in general: In western blotting, separated proteins are transferred to a membrane and probed.

For series [5], the system named is mTOR pathway in Caki-1 cells. The series is described as follows: Western Blotting of mTOR pathway proteins, Caki-1 cells. Format: cell-based. Conditions: 1 μM Everolimus alone or with 10 μM ABT-737, 24 hours. How it is done:
as §5

The test system of series [6] is Everolimus-resistant RenCa (erRenCa) cells. The series is described as follows: In vivo tumor model with erRenCa cells injected into the dorsal area. More on the design: species or system Balb/c mice. To be noted: for animals with tumor formation: 2 mg/kg Everolimus and/or 75 mg/kg ABT-737 intraperitoneally every other day from day 4, 11 injections, eight animals per group. As to the method:
Everolimus stock solution was prepared by dissolving 10 mg lyophilized Everolimus in 1.043 ml DMSO (Dimethyl sulfoxide) (9.6 mg/ml) and ABT-737 stock solution was prepared by dissolving 10 mg ABT-737 in 1.229 ml DMSO (8.14 mg/ml). Stock concentration of both drugs was 10 mM. For in vitro conditions, dilutions were made in cell culture medium at concentrations ranging from 1-5 μM from Everolimus stock concentration. For in vivo conditions, the drug Everolimus that will be injected to animals was prepared by diluting the stock concentration in PBS (Phosphate-buffered saline) to a concentration of 2 mg/kg. For in vitro conditions, dilutions were made in cell culture medium at concentrations ranging from 1-10 μM from ABT-737 stock concentration. For in vivo conditions, the drug ABT-737 that will be injected to animals was prepared by diluting the stock concentration in PBS (Phosphate-buffered saline) to a concentration of 75 mg/kg. Prior to injection, the volume of the injected drug is adjusted to 200 μl by addition of PBS (Phosphate-buffered saline). The drugs were injected into the animals separately one minute apart without being mixed.
as §4
These erRenCa kidney cancer cells were used as a cancer cell line to form a kidney cancer tumor model in animals. For this purpose, cells were subcutaneously injected into the dorsal area of Balb/c mice. […] The experiment was terminated at the end of 11 injections. […] In order to develop resistance to Everolimus, erRenCa cells inactivated their mTOR pathway and began to use the Bcl-2 pathway for their survival. Therefore, cancer cells could only undergo cell death after blocking the anti-apoptotic Bcl-2 survival pathway with the drug ABT-737.

The conditions of series [7]: mouse, in vivo.
From the text: At the end of the experiment, the organs including thymus, heart, stomach, intestine, kidney, spleen, testis, lung, liver, and brain were taken from the animals in each group and were sent for pathological examination. […] At the same time, the metastatic focus in these tissues was also examined.
Series [8] has as its system Caki-1 cells. The series is described as follows: Annexin-V cell death detection assay, Caki-1 cells. Format: cell-based. To be noted: 1 μM Everolimus and 10 μM ABT-737, or ABT-737 monotherapy; 24, 48 and 72 hours.
The mark [9] stands for this setting: Everolimus group, 2 mg/kg intraperitoneally every other day, 2 mg/kg.
Setting [10] is: ABT-737 group, 75 mg/kg intraperitoneally every other day.

As for `CO[C@H]1C[C@@H]2CC[C@@H](C)[C@@](O)(O2)C(=O)C(=O)N2CCCC[C@H]2C(=O)O[C@H]([C@H](C)C[C@@H]2CC[C@@H](OC(=O)C(C)(CO)CO)[C@H](OC)C2)CC(=O)[C@H](C)/C=C(\C)[C@@H](O)[C@@H](OC)C(=O)[C@H](C)C[C@H](C)/C=C/C=C/C=C/1C` [Temsirolimus], in [1], the prolonged progression-free survival entry is recorded as “up to 3.8 months”.
For `CO[C@H]1C[C@@H]2CC[C@@H](C)[C@@](O)(O2)C(=O)C(=O)N2CCCC[C@H]2C(=O)O[C@H]([C@H](C)C[C@@H]2CC[C@@H](OCCO)[C@H](OC)C2)CC(=O)[C@H](C)/C=C(\C)[C@@H](O)[C@@H](OC)C(=O)[C@H](C)C[C@H](C)/C=C/C=C/C=C/1C` [Everolimus], the “response of cell viability to Everolimus (toxicology results)” value with A-498 cells is recorded as “resistant”; in the series with Caki-1 cells [2] (Everolimus monotherapy, 1, 5 or 10 μM, three days), “resistant”. Besides, the “cytotoxic effect on healthy kidney cells” value in the series with HEK293 cells (1 μM Everolimus, 24 and 48 hours) is reported as “did not show any cytotoxic effect”. For the same molecule, the “decrease in the cell viability compared to untreated control cells” value with HEK293 cells (1 μM Everolimus, 72 hour-treatment) is 50%. In the series on RenCa cells, the “effect on cell viability” value is “caused toxic effects”. Besides, the “change in cell viability” value in [3] was “did not cause any change”. Further, the “S6 protein phosphorylated at serine 240/244 (S6-S240/244P)” value in series [4] and in series [5] was “decrease” in each case. The “basal p70S6K protein expression” value in [4] (vs control cells) and in series [5] (vs control cells) was “decreased” in each case. Besides, the “p70S6K protein phosphorylated at threonine 389 (p70S6K-T389P)” value in [4] (vs control cells) and in [5] (vs control cells) was “decrease” throughout. Also, the “autophosphorylation of the mTOR kinase at serine 2448 (mTOR-S2448P)” value in series [4] (vs untreated control cells) and in series [5] (vs untreated control cells) was “diminished” each time. Further, the “animals with tumor formation” value in series [6] is reported as “four of the eight”. Further, the “Grade (WHO/ISUP, per animal H1-H8)” value in [6] (setting [9]) was 4 (3×) and 2. The “Necrosis (per animal H1-H8)” value in [6] (setting [9]) is “No (7×) and Yes”. Also, the “Tumor (pathological examination, per animal H1-H8)” value in [6] (setting [9]) was “Renal cell carcinoma; also recorded: No tumor”. For the same molecule, the “toxic effects on the animals (pathological examination of the tissues)” value in [7] is “did not show any toxic effects”. In series [1] (advanced stage RCC, Phase III clinical trials, after failure of VEGF therapy), the increase of survival entry is given as “about 4.9 months”. The prolonged progression-free survival entry in [1] is “up to 4.9 months”.
Regarding `CNC(=O)c1cc(Oc2ccc(NC(=O)Nc3ccc(Cl)c(C(F)(F)F)c3)cc2)ccn1` [Sorafenib], in [1], the prolonged progression-free survival entry is “up to 5.9 months”.
In the case of `CN(C)CC[C@H](CSc1ccccc1)Nc1ccc(S(=O)(=O)NC(=O)c2ccc(N3CCN(Cc4ccccc4-c4ccc(Cl)cc4)CC3)cc2)cc1[N+](=O)[O-]` [ABT-737], the “decrease in cell viability” value with Caki-1 cells [2] (ABT-737 monotherapy, after 72 hours) came to 80%. Further, the “decrease in the cell viability of healthy kidney cells” value in the series with HEK293 cells (5 μM ABT-737, third day of the treatment) is reported as “did not cause any decrease”. Also, the “apoptosis mediated cell death (Annexin-V)” value in the series with Caki-1 cells [8] is given as “more significant increase in the cell death compared to the combination”. Moreover, the “animals with tumor formation” value in series [6] was “three of the eight”. In series [6] (setting [10]), the “Grade (WHO/ISUP, per animal H1-H8)” value is reported as 4 and the “Necrosis (per animal H1-H8)” value is on record as “No”. Further, the “Tumor (pathological examination, per animal H1-H8)” value in series [6] (ABT-737 group, 75 mg/kg intraperitoneally every other day, 75 mg/kg) was “No tumor; also recorded: Renal cell carcinoma”. In addition, the “toxic effects on the animals (pathological examination of the tissues)” value in series [7] was “did not show any toxic effects”.
